Tests used:
[1] = tested on: T-cells and NK-cells; test: MO-induced apoptosis in T-cells and NK-cells (flow cytometry, reduced forward and increased right angle scatter); type: cell-based, human; conditions: lymphocytes with MO, DPI 100 nM, Fas:Fc-IgG 20 μg/ml
[2] = tested on: mouse sarcoma (MCG); test: In vivo tumor growth of subcutaneously inoculated mouse sarcoma (MCG); set-up: species or system C57/b16 mice; conditions: for Mean Tumor Weight: control .941
Method: The following in vivo study was conducted to determine DPI's effectiveness in inhibiting tumor growth rate. C57/b16 mice were subcutaneously inoculated with mouse sarcoma (MCG) on Day 1. The mice were then subcutaneously injected once daily for Days 1-9 with either NaCl or DPI. There were 5 different treatment groups, including the control group that received NaCl. The other four treatment groups were administered DPI subcutaneously at dosages of either 1 mg/kg, 10 mg/kg, 50 mg/kg, or 100 mg/kg. On Day 9, the mice were killed and tumor size and weight was measured. The resulting tumor weights are provided below in Table 2.

[3] = tested on: elutriated MO (monocytes/macrophages); test: Chemiluminescence assay of spontaneous isoluminol-enhanced extracellular superoxide anion generation in elutriated MO; type: cell-based, human
Method: Peripheral venous blood was obtained as freshly prepared leukopacks from healthy blood donors at the Blood Centre, Sahlgren's Hospital, Goteborg, Sweden, to study the activation characteristics of cytotoxic lymphocytes in the presence and absence of MO, and ROM inhibitors. The blood (65 ml) was mixed with 92.5 ml Iscove's medium, 35 ml 6% Dextran (Kabi Pharmacia, Stockholm, Sweden) and 7.5 ml acid citrate dextrose (ACD) (Baxter, Deerfield, Ill.). After incubation for 15 minutes at room temperature, the supernatant was carefully layered onto Ficoll-Hypaque (Lymphoprep, Myegaard, Norway). Mononuclear cells (MNC) were collected at the interface after centrifugation at 380 g for 15 minutes at room temperature, washed twice in PBS and resuspended in Iscove's medium supplemented with 10% human AB+serum. During all further separation of cells, the cell suspensions were kept in siliconized test tubes (Vacuette, Greiner, Stockholm). […]
To assess whether DPI and histamine inhibited the spontaneous release of ROM from MO, a chemiluminescence assay was performed that specifically quantified extracellular ROM (superoxide anion). The spontaneous isoluminol-enhanced extracellular generation of superoxide anion in elutriated MO was measured using the assay described in Hellstrand, K., et al., J Immunol, 153:4940-4947 (1994) and in Lundqvist & Dahlgren, Free Radic. […]

[4] = tested on: T-cells (CD3ε+) and NK-cells (CD56+); test: IL-2-induced CD69 expression on T-cells and NK-cells incubated with or without MO (flow cytometry); type: cell-based, human
Method: FIG. 1 is a graph showing the protection of CD3ε+ T-cells against oxidative inhibition by DPI. Lymphocytes and MO were recovered from peripheral blood as described herein. A mixture of MO and lymphocytes was treated with culture medium (control, open circles) or IL-2 (100 U/ml; filled circles) for 16 hrs. After incubation, lymphocytes were labeled with antibodies to CD3ε and CD69. […] Similar results were obtained when CD69 expression was examined in CD56+. NK-cells incubated with MO: 29.5% (control) or 79.0% (DPI 1000 nM) of NK-cells acquired the CD69 antigen in response to IL-2. […] The results are representative of three similar experiments.
Peripheral venous blood was obtained as freshly prepared leukopacks from healthy blood donors at the Blood Centre, Sahlgren's Hospital, Goteborg, Sweden, to study the activation characteristics of cytotoxic lymphocytes in the presence and absence of MO, and ROM inhibitors. The blood (65 ml) was mixed with 92.5 ml Iscove's medium, 35 ml 6% Dextran (Kabi Pharmacia, Stockholm, Sweden) and 7.5 ml acid citrate dextrose (ACD) (Baxter, Deerfield, Ill.). After incubation for 15 minutes at room temperature, the supernatant was carefully layered onto Ficoll-Hypaque (Lymphoprep, Myegaard, Norway). Mononuclear cells (MNC) were collected at the interface after centrifugation at 380 g for 15 minutes at room temperature, washed twice in PBS and resuspended in Iscove's medium supplemented with 10% human AB+serum. During all further separation of cells, the cell suspensions were kept in siliconized test tubes (Vacuette, Greiner, Stockholm).
The MNC were further separated into lymphocyte and monocyte (MO) populations using the counter-current centrifugal elutriation (CCE) technique originally described by Yasaka and co-workers (Yasaka, T. et al., J. Immunol., 127:1515) with modifications as described in Hansson, M., et al. (J. Immunol., 156: 42 (1996); hereby incorporated by reference). Briefly, the MNC were resuspended in elutration buffer containing 0.05% BSA and 0.015% EDTA in buffered NaCl and fed into a Beckman J2-21 ultracentrifuge with a JE-6B rotor at 2100 rpm. A fraction with >90% MO was obtained at a flow rate of 18 ml/min. A lymphocyte fraction enriched for NK-cells (CD3^−/56^+ phenotype) and T-cells (CD3^+/56^−) was recovered at flow rates of 14-15 ml/min. This fraction contained <3% MO and consisted of CD3,^−/56^+ NK-cells (45-50%), CD3,^+/56^− T-cells (35-40%), CD3,^−/56^− cells (5-10%), and CD3,^+/56^+ cells (1-5%), as judged by flow cytometry. In some experiments, dynabeads (Dynal A/S, Oslo, Norway) coated with anti-CD56 were used to obtain purified lymphocyte preparations of T-cells, as described in detail by Hansson, M., et al., incorporated above.
Flow cytometry was used in the experiments described below to identify the various sub-populations of T-cells. Flow cytometry permits an investigator to examine a population of cells using a number of labeled probes to differentiate sub-populations within the larger whole. In these experiments, the CD3 marker was used to identify the sub-population of T-cells and the CD4 and CD8 markers were used to further identify the sub-population of T-cells into T helper cells and CTLs. The effects of MO exposure in the presence and absence of histamine and T-cell activation compounds were determined using the CD69 T-cell activation marker. The expression of the different markers was estimated in a lymphocyte gate using flow cytometry (as described in Hellstrand, K., et al. Cell. Immunol. 138: 44-54 (1991), and hereby incorporated by reference).
The following protocol was used in experiments reporting the detection of surface antigens of cell populations. One million cells were incubated with appropriate fluorescein isothiocynate (FITC) and phycoerythrin (PE) conjugated monoclonal antibodies (Becton & Dickinson, Stockholm, Sweden; 1:1/10^6 cells), on ice for 30 minutes. […]

[5] = Scavenging of superoxide anion; conditions: 200 U/ml

For `c1ccc([I+]c2ccccc2)cc1` [DPI, diphenyliodonium], the “apoptotic CD3+/CD69+(%)” value ([1]; control 52) was 7%, the “apoptotic CD56+/CD69+(%)” value ([1]; control 71) was 13% and the “Mean Tumor Weight” value ([2]; 1 mg/kg s.c. once daily Days 1-9, Day 9) was 1.107 gms. The “Mean Tumor Weight” value ([2]; 10 mg/kg s.c. once daily Days 1-9, Day 9) was “.643 gms”, the “Mean Tumor Weight” value ([2]; 50 mg/kg s.c. once daily Days 1-9, Day 9) was “.638 gms” and the “Mean Tumor Weight” value ([2]; 100 mg/kg s.c. once daily Days 1-9, Day 9) was “.473 gms”. For the same compound, the “effect on tumor growth rate in vivo” value ([2]; 1, 10, 50, 100 mg/kg s.c. once daily Days 1-9) was “dose dependent inhibiting effect”, the “reduction of released extracellular superoxide anion” value ([3]; DPI 10 nM, MO from three blood donors) was “more than four fold reduction” and the “NK-cells that acquired the CD69 antigen in response to IL-2” value ([4]; CD56+ NK-cells incubated with MO, DPI 1000 nM, IL-2 100 U/ml, 16 hrs, control 29.5%) was 79.0%. The “MO-induced inhibition of T-cells and NK-cells (IL-2-induced CD69)” value ([4]; DPI, lymphocytes with MO, IL-2 100 U/ml, 16 hours) was “significantly reversed”, the “IL-2-induced expression of CD69 in T-cells or NK-cells” value ([4]; incubated in the absence of MO) was “did not increase” and the “viable CD56+/69+ (gated events)” value ([4]; lymphocytes with MO, DPI 100 nM, Fas:Fc-IgG 20 μg/ml, control 36) was 1248 gated events. The “viable CD3+/CD69+ (gated events)” value ([4]; lymphocytes with MO, DPI 100 nM, Fas:Fc-IgG 20 μg/ml, control 89) was 701 gated events.

With “superoxide dismutase [reference compound]” the superoxide anion scavenged [5] was > 90% and the “MO-induced inhibition of IL-2-induced CD69 expression in T-cells and NK-cells” value ([4]; superoxide dismutase 200 U/ml) was “ineffective”.

In the case of Catalase [reference compound], the “MO-induced inhibition of IL-2-induced CD69 expression in T-cells and NK-cells” value ([4]; catalase at concentrations exceeding 50 U/ml) is reported as “significantly reversed”.

With `NCCc1c[nH]cn1` [histamine, reference compound] the “inhibition of the concentration of extracellular superoxide anion” value ([3]; histamine at 50 μM) was “more than five-fold”.

From patent US20040120926A1, “Reactive oxygen metabolite inhibitors for use in compositions and methods of treatment” (priority 1999, published 2004)
